molecular target: T1, Nuclear factor erythroid 2-related factor 2 (Homo sapiens, UniProt Q16236); experiment: Induction of Nrf2 in human BEAS-2B cells assessed as increase in NQO1 protein level incubated for 48 hrs by MTT assay
T1 sequence (Q16236 whole entry): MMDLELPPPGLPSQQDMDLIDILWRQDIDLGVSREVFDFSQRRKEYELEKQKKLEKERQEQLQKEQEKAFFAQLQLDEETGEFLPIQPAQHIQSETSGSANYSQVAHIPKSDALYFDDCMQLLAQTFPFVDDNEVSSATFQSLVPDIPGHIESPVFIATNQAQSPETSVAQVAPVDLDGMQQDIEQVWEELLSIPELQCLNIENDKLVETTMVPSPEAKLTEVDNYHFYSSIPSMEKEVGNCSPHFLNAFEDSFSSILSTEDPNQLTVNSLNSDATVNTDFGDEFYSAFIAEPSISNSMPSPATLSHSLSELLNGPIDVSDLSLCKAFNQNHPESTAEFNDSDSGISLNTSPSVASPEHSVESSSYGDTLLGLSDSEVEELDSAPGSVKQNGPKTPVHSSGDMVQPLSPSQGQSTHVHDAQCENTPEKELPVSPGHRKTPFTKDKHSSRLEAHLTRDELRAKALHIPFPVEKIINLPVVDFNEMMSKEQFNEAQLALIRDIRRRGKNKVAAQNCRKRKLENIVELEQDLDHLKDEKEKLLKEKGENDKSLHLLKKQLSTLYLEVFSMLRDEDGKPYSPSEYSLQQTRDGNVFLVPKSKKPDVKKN

Row | EC50 [µM] | SMILES
1 | 1.4 | CN(C)C(=O)c1cccc(-c2cccc(-n3ncc(C(=O)O)c3C3CC3)c2)c1
2 | 1.3 | CN(C)C(=O)c1cccc(-c2cccc(-n3ncc(C(=O)O)c3C3CC3)c2)c1F
3 | 2.3 | O=C(O)c1cnn(-c2cccc(-c3cccc(C(=O)N4CCCCC4)c3F)c2)c1C1CC1
4 | 3.5 | CCC[C@H]1CCCCN1C(=O)c1cccc(-c2cccc(-n3ncc(C(=O)O)c3C3CC3)c2)c1F
5 | 1.7 | CN(C)C(=O)[C@H]1CCC[C@@H](c2cccc(-n3ncc(C(=O)O)c3C3CC3)c2)C1
6 | 2.7 | O=C(O)c1cnn(-c2cccc([C@@H]3CCC[C@H](C(=O)N4CCCCC4)C3)c2)c1C1CC1
7 | 4.1 | CCCC1CCCCN1C(=O)C1CCCC(c2cccc(-n3ncc(C(=O)O)c3C3CC3)c2)C1 (stereo unspecified)
8 | 3.2 | CCCC1CCCCN1C(=O)c1cccc(-c2cccc(-n3ncc(C(=O)O)c3C3CC3c3cccnc3)c2)c1 (stereo unspecified)
9 | 2.2 | CN(CC1CC1)C(=O)c1cccc(-c2cccc(-n3ncc(C(=O)O)c3C3CC3)c2)c1F
10 | 3.8 | CCCC1CCCCN1C(=O)c1cccc(-c2cccc(-n3ncc(C(=O)O)c3C3CC3c3ccccn3)c2)c1 (stereo unspecified)
11 | 3.5 | O=C(O)c1cnn(-c2cccc(-c3cccc(C(=O)N(CC4CC4)CC4CC4)c3F)c2)c1C1CC1
12 | 3.5 | CCC[C@@H]1CCCCN1C(=O)c1cccc(-c2cccc(-n3ncc(C(=O)O)c3C3CC3)c2)c1F
13 | 2.5 | CCCC1COCCN1C(=O)c1cccc(-c2cccc(-n3ncc(C(=O)O)c3C3CC3)c2)c1F (stereo unspecified)
14 | 3.7 | O=C(O)c1cnn(-c2cccc(-c3cccc(C(=O)N4CCCC5(CCCC5)C4)c3F)c2)c1C1CC1
15 | 4.4 | CCCCC1CCCN1C(=O)C1CCCC(c2cccc(-n3ncc(C(=O)O)c3C3CC3)c2)C1 (stereo unspecified)
16 | 4.3 | CCCC[C@@H]1CCCN1C(=O)[C@H]1CCC[C@@H](c2cccc(-n3ncc(C(=O)O)c3C3CC3)c2)C1
17 | 2.8 | CCCC1CCCCN1C(=O)c1cccc(-c2cccc(-n3ncc(C(=O)O)c3C3CC3c3cccnn3)c2)c1 (stereo unspecified)
18 | 0.12 | CCCC1CCCCN1C(=O)c1cccc(-c2cccc(-n3ncc(C(=O)O)c3C3CC3c3cn(C)nn3)c2)c1 (stereo unspecified)
19 | > 5 | CCC[C@@H]1CCCCN1C(=O)c1cccc(-c2cccc(-n3ncc(C(=O)O)c3[C@@H]3C[C@H]3c3cn(C)nn3)c2)c1
20 | 0.043 | CCC[C@@H]1CCCCN1C(=O)c1cccc(-c2cccc(-n3ncc(C(=O)O)c3[C@H]3C[C@@H]3c3cn(C)nn3)c2)c1

molecular target: Kelch-like ECH-associated protein 1 (Homo sapiens, UniProt Q14145)
Sequence (Q14145 whole entry): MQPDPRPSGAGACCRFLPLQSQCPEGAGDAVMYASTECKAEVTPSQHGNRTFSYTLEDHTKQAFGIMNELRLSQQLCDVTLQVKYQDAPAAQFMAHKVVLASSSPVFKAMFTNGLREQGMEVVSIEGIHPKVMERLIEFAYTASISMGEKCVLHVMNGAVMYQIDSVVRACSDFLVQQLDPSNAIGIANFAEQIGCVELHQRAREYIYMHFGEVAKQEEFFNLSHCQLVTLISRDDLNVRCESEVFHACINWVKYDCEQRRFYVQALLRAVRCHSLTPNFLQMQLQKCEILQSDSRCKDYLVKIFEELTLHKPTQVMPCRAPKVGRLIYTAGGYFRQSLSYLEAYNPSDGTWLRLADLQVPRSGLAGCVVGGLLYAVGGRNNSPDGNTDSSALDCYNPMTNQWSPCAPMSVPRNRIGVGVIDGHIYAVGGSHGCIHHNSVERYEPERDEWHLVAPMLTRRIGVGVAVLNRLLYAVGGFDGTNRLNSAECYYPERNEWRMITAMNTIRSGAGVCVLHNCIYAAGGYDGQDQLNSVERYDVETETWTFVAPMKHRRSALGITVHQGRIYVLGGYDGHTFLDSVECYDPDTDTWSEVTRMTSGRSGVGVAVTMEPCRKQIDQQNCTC

Row | IC50 [µM] | SMILES
21 | 0.042 | CCCC1CCCCN1C(=O)c1cccc(-c2cccc(-n3ncc(C(=O)O)c3C3CC3c3ccccn3)c2)c1 (stereo unspecified)
